These results are taken from patent US9789191B2, “Aqueous drug delivery system” (SOLIXA TECHNOLOGIES, INC., priority 2010, dated 2017).

The data set is described as follows: Comparative accelerated storage study of ASA at 45° C. for 3 weeks (HPLC). The data set is classed as physicochemical. The following applies: in distilled water, 143 mg ASA in 8 oz. How it is done: Accelerated storage studies were conducted to examine the stability of ASA in distilled water, ASA in acidified (1% citric acid) distilled water, and of a molecular inclusion complex of ASA-βCD (in distilled water). Duplicate samples of each treatment were made containing 143 mg of ASA in 8 oz of distilled water. For the treatment containing the ASA-βCD complex, a 2:1 ratio of βCD to ASA was used as described in part I of the prototype formulation procedure outlined above. The treatments were stored at 45° C. for 3 weeks to determine the rate of hydrolysis of ASA to its breakdown product salicylic acid. Analysis of degradation products was performed using an Agilent Technologies 1200 series HPLC with a PDA (photodiode array) detector, incorporating a Phenominex C18-2 column (25 cm×0.39 cm i.d., 5 μm particle size). Solvent system A) H2O, Acetonitrile, Phosphoric Acid (95.45:4.5:0.05), and B) H2O, Acetonitrile, Phosphoric Acid (49.95:50:0.05). Solvent B ramped from 10%-80% over 20 minutes. Stability was verified using peak area, which was used to determine the overall percentage of breakdown of ASA to salicylic acid. […] The sensory profile of the βCD-ASA solution was evaluated.

As to `CC(=O)Oc1ccccc1C(=O)O` [ASA, acetylsalicylic acid], the “breakdown of ASA to salicylic acid” value was “nearly quantitative breakdown”.
